Six compounds from ChEMBL document CHEMBL1131938, “Leucine-phenylalanine dipeptide-based N-mesyloxysuccinimides: synthesis of all four stereoisomers and their assay against serine proteases” (Bioorg Med Chem Lett, 1999) can be followed below.

Experiment [1] has as its target Chymotrypsinogen A (Bos taurus) (UniProt P00766). Description: Inhibitory activity against Chymotrypsinogen enzyme was determined.
Experiment [2] has as its target T1, Neutrophil elastase (Homo sapiens) (UniProt P08246).
T1 sequence (whole entry): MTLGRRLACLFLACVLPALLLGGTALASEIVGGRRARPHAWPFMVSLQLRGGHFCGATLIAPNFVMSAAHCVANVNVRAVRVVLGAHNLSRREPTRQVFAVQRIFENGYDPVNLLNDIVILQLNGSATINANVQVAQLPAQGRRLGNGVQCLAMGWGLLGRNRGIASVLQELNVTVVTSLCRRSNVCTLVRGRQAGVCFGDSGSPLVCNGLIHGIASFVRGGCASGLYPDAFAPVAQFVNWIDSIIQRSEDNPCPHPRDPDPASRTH
Kind of experiment: Inhibitory activity against human neutrophil elastase after 30 min incubation. The arrangement: concentration or dose not given beside the values.

For experiment [3], the target named is Chymotrypsinogen A (Bos taurus) (UniProt P00766). Description: Inhibitory activity against Chymotrypsinogen was determined.

Compound `CC(=O)N[C@]1(Cc2ccccc2)CC(=O)N(OS(C)(=O)=O)C1=O` displayed a k obs / 1 in experiment [1] of 217 M⁻¹ s⁻¹. The same compound returned an inhibition in experiment [2] of 56%.

Regarding `CC(=O)N[C@H](CC(C)C)C(=O)N[C@@]1(Cc2ccccc2)CC(=O)N(OS(C)(=O)=O)C1=O`, the k obs / 1 in experiment [1] worked out at 9 M⁻¹ s⁻¹. The compound further had an inhibition in experiment [2] of 6%.

As to `CC(=O)N[C@H](CC(C)C)C(=O)N[C@]1(Cc2ccccc2)CC(=O)N(OS(C)(=O)=O)C1=O`, the k obs / 1 in experiment [1] amounted to 244 M⁻¹ s⁻¹. In experiment [2], this compound had an inhibition of 72%.

The compound `CCCCOC(=O)N[C@@H](CC(C)C)C(=O)N[C@]1(Cc2ccccc2)CC(=O)N(OS(C)(=O)=O)C1=O` yielded a k obs / 1 in experiment [1] of 180 M⁻¹ s⁻¹. Moreover, the inhibition in experiment [2] was 48%.

In experiment [3], `CC(=O)N[C@@H](CC(C)C)C(=O)N[C@@]1(Cc2ccccc2)CC(=O)N(OS(C)(=O)=O)C1=O` returned a k obs / 1 of 28 M⁻¹ s⁻¹. Besides, the inhibition in experiment [2] is 24%.

Consider `CC(=O)N[C@@H](CC(C)C)C(=O)N[C@]1(Cc2ccccc2)CC(=O)N(OS(C)(=O)=O)C1=O`, for which the k obs / 1 in experiment [1] stood at 170 M⁻¹ s⁻¹. Moreover, the inhibition in experiment [2] came to 63%.

Usually inhibition stands for the change of the read-out against control, counted positive when it falls.
